Consider 28 compounds from patent publication US8822449B2, “Substituted aminoindanes and analogs thereof, and the pharmaceutical use thereof” (Sanofi, priority 2008, dated 2014).

For the assay, the target named is T1, sodium-proton exchanger of subtype 3 (NHE3) (Homo sapiens, UniProt P48764).
T1 construct: expressed in transfected cells
T1 sequence (P48764 26-834): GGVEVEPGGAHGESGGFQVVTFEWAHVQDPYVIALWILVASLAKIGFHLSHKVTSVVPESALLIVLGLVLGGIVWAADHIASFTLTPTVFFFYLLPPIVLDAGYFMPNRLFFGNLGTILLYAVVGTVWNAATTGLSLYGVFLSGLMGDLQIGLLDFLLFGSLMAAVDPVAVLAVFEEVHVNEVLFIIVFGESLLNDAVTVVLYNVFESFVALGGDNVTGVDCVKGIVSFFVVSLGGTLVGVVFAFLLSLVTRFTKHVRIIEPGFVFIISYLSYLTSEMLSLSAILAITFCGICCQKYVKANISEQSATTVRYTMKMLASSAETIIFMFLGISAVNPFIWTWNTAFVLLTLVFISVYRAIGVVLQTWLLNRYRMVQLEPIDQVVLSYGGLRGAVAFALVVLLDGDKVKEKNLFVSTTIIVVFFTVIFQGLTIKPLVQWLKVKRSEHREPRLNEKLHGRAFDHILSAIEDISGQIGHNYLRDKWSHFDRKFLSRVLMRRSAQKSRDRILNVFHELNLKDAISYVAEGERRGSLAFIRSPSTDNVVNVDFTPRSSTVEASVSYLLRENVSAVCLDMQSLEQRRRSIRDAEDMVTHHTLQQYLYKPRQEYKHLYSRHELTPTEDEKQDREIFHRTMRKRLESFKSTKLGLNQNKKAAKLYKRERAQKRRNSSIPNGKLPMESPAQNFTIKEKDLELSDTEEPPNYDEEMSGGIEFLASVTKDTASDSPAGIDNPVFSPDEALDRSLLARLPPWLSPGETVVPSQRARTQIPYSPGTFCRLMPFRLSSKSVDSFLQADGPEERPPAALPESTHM
Briefly: Recovery of intracellular pH (pHi) after acidification in LAP1 cells stably expressing NHE3 (BCECF fluorescence, FLIPR). It counts as cell-based. Particulars: LAP1 cells stably expressing NHE3; pH recovery after acidification; range 1 is % inhibition at 10 μM; read-out: Activity range (inhibitory effect on NHE3).

Regarding `N[C@@H]1CCCN([C@H]2Cc3c(Cl)cc(Cl)cc3[C@@H]2Oc2ccc(F)cc2-c2cc[nH]n2)C1` [Example 113, (R)-1-{(1S,2S)-4,6-dichloro-1-[4-fluoro-2-(1H-pyrazol-3-yl)phenoxy]indan-2-yl}piperidin-3-ylamine], the IC50 is below 1 µM.

In the case of `N[C@@H]1CCCN([C@@H]2Cc3ccccc3[C@H]2Oc2ccc(Cl)nc2)C1` (racemic) [Example 82, (R)-1-[rac-trans-(1,2)-1-(6-chloropyridin-3-yloxy)indan-2-yl]piperidin-3-ylamine], the IC50 is 1 to 10 µM.

`CC1(C)NC(=O)N(c2ccc(Cl)c(O[C@H]3c4cc(Cl)cc(Cl)c4C[C@@H]3N3CC[C@@H](O)C3)c2)C1=O` [Example 431, 3-{4-chloro-3-[(1S,2S)-4,6-dichloro-2-((R)-3-hydroxypyrrolidin-1-yl)indan-1-yloxy]phenyl}-5,5-dimethylimidazolidine-2,4-dione]: the IC50 fell in the range of 1 to 10 µM.

Regarding `CC(=O)Nc1cccc(O[C@H]2c3cc(Cl)cc(Cl)c3C[C@@H]2N2CCC[C@@H](N(C)C)C2)c1` [Example 694, N-{3-[trans-(1S,2S)-4,6-dichloro-2-((R)-3-dimethylaminopiperidin-1-yl)indan-1-yloxy]phenyl}acetamide], the IC50 was below 1 µM.

For the compound `CC(=O)Nc1cccc(O[C@H]2c3cc(F)cc(Cl)c3C[C@@H]2N2CCNCC2)c1` (racemic) [Example 650, N-[3-(rac-trans-(1,2)-4-chloro-6-fluoro-2-piperazin-1-ylindan-1-yloxy)phenyl]acetamide], the IC50 is below 1 µM.

Turning to `Cc1nnc(C)n1-c1ccc(O[C@H]2c3cc(Cl)cc(F)c3C[C@@H]2N2CC[C@@H](O)C2)c(Cl)c1` [Example 138, (R)-1-{trans-(1S,2S)-6-chloro-1-[2-chloro-4-(3,5-dimethyl-[1,2,4]triazol-4-yl)phenoxy]-4-fluoroindan-2-yl}pyrrolidin-3-ol], the IC50 is below 1 µM.

For `N[C@@H]1CCCN([C@H]2CCc3ccccc3[C@@H]2Oc2ccc(Cl)nc2)C1` (racemic) [Example 81, (R)-1-[rac-trans-(1,2)-1-(6-chloropyridin-3-yloxy)-1,2,3,4-tetrahydronaphthalen-2-yl]piperidin-3-ylamine], the inhibition at 10 µM was 20 to 50%.

Take `NS(=O)(=O)c1ccc(O[C@H]2c3ccccc3C[C@@H]2CN2CCOCC2)c(F)c1` (racemic) [Example 449, 3-fluoro-4-(2-morpholin-4-ylmethylindan-1-yloxy)benzenesulfonamide]: the inhibition at 10 µM is 20 to 50%.

As for `NS(=O)(=O)c1ccc(O[C@H]2c3ccccc3C[C@@H]2N2CCCC2)c(Cl)c1` (racemic) [Example 444, 3-chloro-4-(rac-trans-(1,2)-2-pyrrolidin-1-ylindan-1-yloxy)benzenesulfonamide], the IC50 was below 1 µM.

Consider `NS(=O)(=O)c1ccc(O[C@H]2c3ccccc3C[C@@H]2N2CCCCCC2)cc1` (racemic) [Example 464, 4-(rac-trans-(1,2)-2-azepan-1-ylindan-1-yloxy)benzenesulfonamide], for which the IC50 is below 1 µM.

As to `NCC1CCN([C@@H]2Cc3ccccc3[C@H]2Oc2ccc(C(N)=O)cc2)CC1` (racemic) [Example 548, 4-[rac-trans-(1,2)-2-(4-aminomethylpiperidin-1-yl)indan-1-yloxy]benzamide], the IC50 is 1 to 10 µM.

As for `NCC1CCN([C@@H]2Cc3ccccc3[C@H]2Oc2ccc(S(N)(=O)=O)c(Cl)c2Cl)C1` (mixture of isomers) [Example 538, 4-[rac-trans-(1,2)-2-(3-aminomethylpyrrolidin-1-yl)indan-1-yloxy]-2,3-dichlorobenzenesulfonamide], the IC50 is 1 to 10 µM.

Take `Cc1ccc(O[C@@H]2c3ccccc3C[C@H]2N2CCC(CN)CC2)c(Br)c1` (racemic) [Example 603, C-{1-[rac-trans-(1,2)-1-(2-bromo-4-methylphenoxy)indan-2-yl]piperidin-4-yl}methylamine]: the IC50 fell in the range of 1 to 10 µM.

With `N#Cc1ccc(O[C@H]2c3ccccc3CC[C@@H]2N2CCC[C@H](N)C2)c([N+](=O)[O-])c1` (racemic) [Example 534, 4-[rac-trans-(1,2)-2-((S)-3-aminopiperidin-1-yl)-1,2,3,4-tetrahydronaphthalen-1-yloxy]-3-nitrobenzonitrile], the inhibition at 10 µM is 20 to 50%.

As for `N#Cc1ccc(O[C@@H]2c3ccccc3C[C@H]2N2CCC(CN)C2)c(Cl)c1` (mixture of isomers) [Example 541, 4-[rac-trans-(1,2)-2-(3-aminomethylpyrrolidin-1-yl)indan-1-yloxy]-3-chlorobenzonitrile], the IC50 fell in the range of 1 to 10 µM.

Take `N#Cc1ccc(O[C@H]2c3ccccc3CC[C@@H]2N2CCC[C@H](N)C2)c(Cl)c1` (racemic) [Example 532, 4-[rac-trans-(1,2)-2-((S)-3-aminopiperidin-1-yl)-1,2,3,4-tetrahydronaphthalen-1-yloxy]-3-chlorobenzonitrile]: the IC50 is 1 to 10 µM.

Take `NS(=O)(=O)c1ccc(O[C@H]2c3ccccc3C[C@@H]2NCc2ccccc2)c(F)c1` (racemic) [Example 459, 4-(2-benzylaminoindan-1-yloxy)-3-fluorobenzenesulfonamide]: the inhibition at 10 µM was in the range of 20 to 50%.

Regarding `Cc1nnc(C)n1-c1ccc(O[C@H]2c3cc(Cl)cc(Cl)c3C[C@@H]2N2CCCNCC2)c(Cl)c1` [Example 344, 1-{trans-(1S,2S)-4,6-dichloro-1-[2-chloro-4-(3,5-dimethyl-[1,2,4]triazol-4-yl)phenoxy]indan-2-yl}-[1,4]diazepane], the IC50 is below 1 µM.

For the compound `CN1CCCN([C@H]2Cc3c(Cl)cc(Cl)cc3[C@@H]2Oc2ccc(S(C)(=O)=O)cc2)CC1` [Example 305, 1-[trans-(1S,2S)-4,6-dichloro-1-(4-methanesulfonylphenoxy)indan-2-yl]-4-methyl-[1,4]diazepane], the IC50 is below 1 µM.

As to `O=C1CCC(=O)N1c1ccc(O[C@H]2c3cc(Cl)cc(F)c3C[C@@H]2NC2CCCC2)c(F)c1` [Example 752, 1-[4-(trans-(1S,2S)-6-Chloro-2-cyclopentylamino-4-fluoro-indan-1-yloxy)-3-fluoro-phenyl]-pyrrolidine-2,5-dione], the IC50 lay in the range of 1 to 10 µM.

As for `NCC1CCN([C@@H]2Cc3ccccc3[C@H]2Oc2ccc(F)cc2F)C1` (mixture of isomers) [Example 602, C-{1-[rac-trans-(1,2)-1-(2,4-difluorophenoxy)indan-2-yl]pyrrolidin-3-yl}methylamine], the IC50 lay in the range of 1 to 10 µM.

Turning to `Cn1ccn(-c2cc(O[C@H]3c4cc(Cl)cc(Cl)c4C[C@@H]3N3CC[C@@H](O)C3)ccc2Cl)c1=O` [Example 310, 1-{2-chloro-5-[(1S,2S)-4,6-dichloro-2-((R)-3-hydroxypyrrolidin-1-yl)indan-1-yloxy]phenyl}-3-methyl-1,3-dihydroimidazol-2-one], the inhibition at 10 µM was in the range of 20 to 50%.

In the case of `N[C@H]1CCCN([C@H]2CCc3ccccc3[C@@H]2Oc2cccc3ccc(Cl)nc23)C1` (racemic) [Example 154, (S)-1-[rac-trans-(1,2)-1-(2-chloroquinolin-8-yloxy)-1,2,3,4-tetrahydronaphthalen-2-yl]piperidin-3-ylamine], the IC50 fell in the range of 1 to 10 µM.

With `Cc1nnc(C)n1-c1ccc(O[C@H]2c3c(Cl)sc(Cl)c3CC[C@@H]2N2CCCC2)c(F)c1` (racemic) [Example 495, 4-[4-((4S,5S)-1,3-dichloro-5-pyrrolidin-1-yl-4,5,6,7-tetrahydrobenzo[c]thiophen-4-yloxy)-3-fluorophenyl]-3,5-dimethyl-4H-[1,2,4]triazole], the IC50 fell in the range of 1 to 10 µM.

Turning to `CN(C)[C@@H]1CCCN([C@H]2Cc3c(Cl)cc(Cl)cc3[C@@H]2Oc2ccc(S(C)(=O)=O)cc2)C1` [Example 224, {(R)-1-[trans-(1S,2S)-4,6-dichloro-1-(4-methanesulfonylphenoxy)indan-2-yl]piperidin-3-yl}-dimethylamine], the IC50 is below 1 µM.

As for `CC(=O)Nc1cccc(O[C@H]2c3ccccc3C[C@@H]2N2CCC[C@@H](NCCC(F)(F)F)C2)c1` [Example 632, N-(3-{trans-(1S,2S)-2-[(R)-3-(3,3,3-trifluoropropylamino)piperidin-1-yl]indan-1-yloxy}-phenyl)acetamide], the IC50 was below 1 µM.

`Cc1nnc(C)n1-c1ccc(O[C@H]2c3cc(Cl)cc(Cl)c3C[C@@H]2N2CC[C@@H](O)C2)cc1` [Example 133, (R)-1-{trans-(1S,2S)-4,6-dichloro-1-[4-(3,5-dimethyl-[1,2,4]triazol-4-yl)phenoxy]indan-2-yl}pyrrolidin-3-ol]: the IC50 is below 1 µM.

`O=C1CNC(=O)N1c1ccc(F)c(O[C@H]2c3cc(Cl)cc(F)c3C[C@@H]2N2CC[C@@H](O)C2)c1` [Example 421, 3-{3-[(1S,2S)-6-chloro-4-fluoro-2-((R)-3-hydroxypyrrolidin-1-yl)indan-1-yloxy]-4-fluorophenyl}imidazolidine-2,4-dione]: the IC50 was in the range of 1 to 10 µM.
